# According to US6821986B2, “Amino acid derivatives and their use as medicines” (Societe de Conseils de Recherchet et E'Applications …, priority 2000, dated 2004):
# Assays:
# [1] = biological target: T1, neuronal constitutive NO synthase (Rattus norvegicus, UniProt P29476); test: Effects on neuronal constitutive NO synthase of a rat's cerebellum ([3H]L-arginine to [3H]L-citrulline conversion); format: biochemical; details: rat cerebellum homogenate, conversion of [3H]L-arginine to [3H]L-citrulline, 15 min
# T1 construct: The reaction is initiated by adding 50 μl of homogenate; from tissue; host or cells: cerebellum of Sprague-Dawley rats (homogenate, centrifuged at 21000 g)
# Experimental: Study of the Effects on Neuronal Constitutive NO Synthase of a Rat's Cerebellum
# The inhibitory activity of the products of the invention is determined by measuring their effects on the conversion by NO synthase of [^3H]L-arginine to [^3H]L-citrulline according to the modified method of Bredt and Snyder (Proc. Natl. Acad. Sci. USA, (1990) 87: 682-685). The cerebellums of Sprague-Dawley rats (300 g-Charles River) are rapidly removed, dissected at 4° C. and homogenized in a volume of extraction buffer (HEPES 50 mM, EDTA 1 mM, pH 7.4, pepstatin A […], leupeptin […]). The homogenates are then centrifuged at 21000 g for 15 min at 4° C. Dosage is carried out in glass test tubes in which 100 μl of incubation buffer containing 100 mM of HEPES (pH 7.4), 2 mM of EDTA, 2.5 mM of CaCl2, 2 mM of dithiotreitol, 2 mM of reduced NADPH and 10 μg/ml of calmodulin are distributed. 25 μl of a solution containing 100 nM of [^3H]L-arginine (Specific activity: 56.4 Ci/mmole, Amersham) and 40 μM of non-radioactive L-arginine is added. The reaction is initiated by adding 50 μl of homogenate, the final volume being 200 μl (the missing 25 μl are either water or the tested product). […] After passing the samples through a 1 ml column of DOWEX resin, the radioactivity is quantified by a liquid scintillation spectrometer.
# HT-22 cells = test: Protection of HT-22 cells from oxidation stress induced by glutamate (MTT viability); format: cell-based; details: Mus musculus, glutamate 5 mM, cell viability after 24 h by MTT
# Experimental: Study of the Effects on the Oxidation Stress Induced by Glutamate on Cells in Culture (HT-22).
# The inhibitory activity of the products of the invention is determined by measuring their ability to protect the cells of a mouse hippocampal line (HT-22) from an oxidation stress caused by glutamate. The biosynthesis of glutathione, an essential element of cell detoxification of free radicals, requires the active transport of cystine to the interior of the cell. The glutamate by opposing the penetration of cystine causes a reduction in the level of glutathione which leads to the death of the cell due to oxidation stress (Demerlé-Pallardy, C. et al., J. Neurochem. (2000) 74, 2079-2086; Murphy, T. H. et al., Neuron, (1989) 2: 1547-1558). The cells are cultured at 37° C. in a DMEM medium with 10% of foetal calf serum added to it. The tests are carried out in 96-well plates containing 5000 cells per well. The glutamate (5 mM) is added to the medium containing or not containing the products to be tested. The cell viability is tested after 24 h by the MTT method (Hansen, M. B. et al., J Immunol. Methods (1989), 119, 203-210). The ability of the compounds to protect the cells from the toxic action of the glutamate is estimated in EC50, calculated relative to the viability of cells which have not been subjected to the action of glutamate considered as 100% viability.
Structure (SMILES),IC50 [1],EC50 (HT-22 cells)
"N=C(NCCC[C@H](N)C(=O)Nc1ccc(Nc2ccccc2)cc1)N[N+](=O)[O-] [Example 1, (2S)-2-amino-N-(4-anilinophenyl)-5-{[imino(2-oxido-2-oxohydrazino)methyl]amino}pentanamide]",< 10 µM,< 25 µM
"CN1CCc2cc(NC(=O)[C@@H](N)CCCNC(=N)N[N+](=O)[O-])ccc21 [Example 2, (2S)-2-amino-5-{[imino(2-oxido-2-oxohydrazino)methyl]amino}-N-(1-methyl-2,3-dihydro-1H-indol-5-yl)pentanamide]",< 10 µM,< 25 µM
